Consider two molecules from patent publication US7709514B2, “Therapeutic molecules and methods-1” (Cortical Pty Ltd, priority 2002, dated 2010).

The test system of assay [1] is IL-1 induced phosphorylation of ERK. Nature of the assay: IL-1 induced phosphorylation (activation) of ERK, Western blotting. It is filed as cell-based, human. Conditions: dexamethasone 10^-9 M alone; human dermal fibroblasts, IL-1 0.1 ng/ml, 30 minutes. As for the experimental part:
S112 human dermal fibroblasts cultured in RPMI (serum-free) medium were stimulated with recombinant human IL-1 0.1 ng/ml, as described herein, for 30 minutes, with or without the addition of dexamethasone 10^−9M or benzimidazol-2-one-5-pentanoate (compound 5) (50 μM). The phosphorylation (activation) of ERK was assessed using Western blotting with a mAb specific for the phosphorylated (activated) form of ERK. In brief, cells were disrupted by repeated aspiration through a 21-gauge needle. After incubation on ice for 10 min and microcentrifugation at 3000 rpm for 15 min (4° C.), the supernatants were removed, the protein concentration was determined, and the lysates were stored at −80° C. Equal amounts of cellular proteins were fractionated on 10% SDS-polyacrylamide electrophoresis gels and transferred to polyvinylidene difluoride membranes. Immunoblotting was performed using antibodies directed against phospho-p44/42 (ERK) and total p44142 according to the manufacturer's instructions. The intensity of ERK activation is proportional to the size and optical density (darkness) of the resulting blots. Total ERK blots serve as a loading control, such that changes in phosphorylated ERK represent changes in phosphorylation and not in total ERK protein.
A general note: In western blotting, separated proteins are transferred to a membrane and probed.

Assay [2] concerns IL-1-induced COX-2 expression. Nature of the assay: IL-1-induced COX-2 expression in S112 human dermal fibroblasts (MIF-dependent bioassay). It is filed as cell-based. Here is the method:
The activity of compounds was studied in a bioassay utilising MIF-dependent activation of human dermal fibroblasts. […] IL-1-induced COX-2 expression is therefore a MIF-dependent event. […] Prior to experimentation, cells were seeded at 10^5 cells/ml in RPMI/0.1% BSA for 18 hours. […] After 6 hours, cells were collected and intracellular COX-2 protein determined by permeabilisation flow cytometry. […] Cellular fluorescence was determined using a flow cytometer. At least 5000 events were counted for each reading, each of which was performed in duplicate, and the results expressed in mean fluorescence intensity (MFI) after subtraction of negative control-labelled cell fluorescence. The effect of each compound was determined by subtracting the IL-1+compound-treated cell MFI from the IL-1-treated cell (control) MFI and expressed as % inhibition. In each case the % inhibition of IL-1-induced COX-2 expression is expressed as the mean, or mean±SEM where results are available from multiple experiments.

The subject of assay [3] is antigen-specific T cell activation. Put plainly: antigen-specific (mBSA) activation of splenic T lymphocytes, 3H-thymidine incorporation. It is filed as cell-based, mice. To be noted: Mus musculus, T-cell, read-out: EC50, inhibition of T cell activation. Here is the method:
C57BL6/J male mice, aged 7-10 weeks old, were immunised with 200 μg of methylated bovine serum albumin (mBSA) dissolved in 20 μL of saline, emulsified in 200 μL of Freund's complete adjuvant (FCA) by subcutaneous injection. Seven (7) days later mice received a booster immunisation with 100 μg mBSA in 10 μL saline plus 100 μL FCA by subcutaneous injection. After a further seven (7) days mice were killed and spleens collected aseptically into Hanks buffered saline solution (HBSS). A single cell suspension was prepared in Petri dishes by flushing DMEM using a 26G needle and 2 mL syringe. The resulting cell suspension was centrifuged for 5-7 minutes and supernatant discarded. Erythrocytes were lysed using a solution containing 0.579% NH4Cl, 0.000037% EDTA, and 0.1% NaHCO3 in a 37° C. water bath. Tubes were then filled with DMEM and centrifuged for 5-7 minutes. The cell-containing pellet was then resuspended in DMEM containing 5% fetal calf serum TICS) and 0.05% 2-mercapto-ethanol at a concentration of 1×10^6 cells/mL and plated at 1×10^5 cells/well in 96-well plastic tissue culture plates. Test substances (compound or vehicle) were added and incubated for 1 hour in a 37° C., 5% CO2 incubator. The specific stimulating antigen, mBSA, was then added at 10-50 μg/ml and plates incubated for 30 hours in a 37° C., 5% CO2 incubator. Tritiated ^3H-thymidine was then added at a concentration of 0.5 μCi/well for a further 18 hours. Cells were harvested on a Packard cell harvester, and the harvested material added to 750 μL/tube scintillation fluid. Scintillation counts were read on a Wallac beta-emission counter.
The concentration at which T cell activation was suppressed by 50% compared to vehicle-only-treated cells (EC50) was calculated using Prism® software. […] Further compounds were also tested for their ability to inhibit antigen-specific T cell activation as a marker of the inhibition of the cytokine or biological activity of MIF using this assay. Table 5 lists the EC50 for each compound in this assay, performed with concentrations of mBSA of either 50 or 10 μg/ml.

Assay [4] concerns lymph node and splenic T cells. Put plainly: ex vivo antigen-specific T cell activation after in vivo treatment. On the set-up: species or system mice. An excerpt:
In vivo administration of such a compound might be expected to exert effects on T cell responsiveness even after the T cells have been removed from exposure to the compound, that is, if T cells were studied ex vivo after in vivo treatment with the MIF antagonist compound. To measure ex vivo antigen-specific T cell activation, draining lymph nodes from arthritic limbs or spleens were removed from mice with murine antigen induced arthritis, induced as above with mBSA, at day 28 after first immunisation and a single cell suspension prepared in DMEM containing 5% FCS and 0.05% 2-mercaptoethanol. 1×10^5 cells/200 μl were cultured in triplicate in the presence or absence of mBSA (0.1, 1.0, 10 μg/ml) in 96-well plates for 48 hours (37° C., 5% CO2.) The T cell proliferation response was determined by measuring ^3H-thymidine incorporation during the final 18 hr. The cells were harvested and radioactivity incorporation into the DNA was measured with a Wallac 1409 liquid scintillation counter. The means of each triplicate culture were calculated. Each experiment comprised at least three individual animals and the results presented represent the mean±SEM of groups of animals in each experiment. The percentage inhibition of T cell proliferation was calculated using the result of the […] incorporation of cells from compound-treated animals subtracted from the ^3H-thymidine incorporation of cells from vehicle-treated animals.

In assay [5] the test system is murine antigen induced arthritis. Put plainly: murine antigen-induced arthritis, histological score. It is filed as in vivo, mice. Here is the method:
Antigen-induced arthritis was induced in mice. C57BL6/J male mice, aged 7-10 weeks old, were immunized on day 0 with 200 μg methylated BSA (mBSA) emulsified in 200 μl of Freund's complete adjuvant (FCA) injected subcutaneously into the flank skin. Mice were treated with compound 5, administered by intraperitoneal injection, once per 24 hours at a dose of 15 mg/kg body weight. After seven days, mice received 100 μg mBSA and 100 μl FCA by intradermal injection at the base of the tail. After a further 14 days, arthritis was induced by intra-articular injection of 30 μg mBSA in 10 μl of sterile saline into the left knee, the right knee being injected with sterile saline alone.
Arthritis was analysed histologically at day 28 after first immunisation. Knee joints were dissected and fixed in 10% buffered formalin for 7 days. Fixed tissues were decalcified for 3 weeks in 15% ethylene-diamine-tetra-acetic acid (EDTA), dehydrated and embedded in paraffin. Sagittal sections (5 μm) of the knee joint were stained with Safranin-O and counterstained with fast green/iron hematoxylin. Histological sections were scored from 0 to 3 for four parameters: Synovitis was defined as hyper-cellularity of the synovium including pannus formation. Joint space exudate was identified as leukocytes, discretely or in aggregates, in the joint space. Cartilage degradation was defined as the loss of Safranin-O staining of articular cartilage (0=full stained cartilage, 3=totally unstained cartilage). Bone damage was defined as the extent and depth of the subchondral bone invasion by pannus. A total score was also generated from the sum of these four parameters (maximum 12).

The test system of assay [6] is murine peritoneal macrophage cytokine production. Nature of the assay: inhibition of peritoneal macrophage cytokine production (ELISA). To be noted: Mus musculus. Format: cell-based, mice. Here is the method:
C57BL6/J male mice were injected intraperitoneally with 2 ml of thioglycollate. Five (5) days later peritoneal macrophages were collected by lavaging the peritoneum of anaesthetized mice with 3 ml of cold Hanks buffered saline solution. Cells from several mice were pooled, washed and re-suspended in DMEM supplemented with 5% FCS. Cells were plated in 96 well plastic tissue culture plates at 1×10^5 cells/well. Cells were treated with compound or vehicle for 1 hour in a 5% CO2 incubator at 37° C. Cells were then treated with LPS (10-100 ng/ml) or recombinant human interferon-γ (10 units/ml) and incubated for 24 hours. After 24 hours, 50 μl of supernatant from each well was carefully removed and transferred to ELISA plates. The concentration of interleukin 1 (IL-1) or interleukin 6 (IL-6) was measured by ELISA. The concentration of compound at which LPS- or interferon-γ-induced cytokine release was suppressed by 50% compared to vehicle-only-treated cells (EC50) was calculated using Prism® software. Table 9 lists the EC50 for two compounds tested in this assay.
For orientation: In an ELISA, binding on a coated surface is turned into a signal by an enzyme label.

“Also recorded” adds a separate entry of the source. Read-outs that look alike come from different tables or passages of the source.

For the molecule `C[C@@H]1C[C@H]2[C@@H]3CCC4=CC(=O)C=C[C@]4(C)[C@@]3(F)[C@@H](O)C[C@]2(C)[C@@]1(O)C(=O)CO` [Dexamethasone, dexamethasone], the “ERK activation by IL-1” value in assay [1] is “does not inhibit; also recorded: not inhibited”. In addition, in assay [2] (Table 2 experiment, dexamethasone 10^-9 M alone), the “% Inhibition of IL-1 induced COX-2 expression” value turned out to be 46.8%.

In the case of `O=C(NCCc1ccc(O)c(O)c1)c1ccc2[nH]c(=O)[nH]c2c1` [Compound 13, N-(3,4-dihydroxyphenethyl)-2-oxo-2,3-dihydro-1H-1,3-benzimidazole-5-carboxamide], the EC50 in assay [3] (mBSA 10 μg/ml) worked out at 53.3 µM; in assay [3] (mBSA 50 μg/ml), 71.7 µM; in assay [6] (Interferon-γ 10 units/ml, read-out: EC50, IL-6 release) it was 9.82 µM; in assay [6] ([LPS] 100 ng/mL, read-out: EC50, IL-1 release) it was 16.7 µM. In addition, the “ex vivo splenic T cell proliferation in response to mBSA” value in assay [4] (FIG. 11b, table 7, vs vehicle) is “reduced proliferative responses”. The “% inhibition of ex vivo splenic T cell activation” value in assay [4] ([mBSA] 10 μg/mL) came to 28%. The “Total arthritis score (mean ± SEM)” value in assay [5] (maximum 12, vehicle 6.25 ± 0.2) was found to be 5.17 ± 1.9. Further, the “severity of murine antigen induced arthritis” value in assay [5] (mouse, in vivo) is “inhibitory effect”. The same molecule registered an inhibition at 1 µM in assay [2] (Homo sapiens, Fibroblast, compound 1 μM, S112 cells, IL-1 0.1 ng/ml, 6 hours) of 9.6%. Also, testing at 10 µM in assay [2] (Homo sapiens, Fibroblast, compound 10 μM, S112 cells, IL-1 0.1 ng/ml, 6 hours) gave an inhibition of 14.1%. Moreover, the inhibition at 50 µM in assay [2] (Homo sapiens, Fibroblast, compound 50 μM, S112 cells, IL-1 0.1 ng/ml, 6 hours, read-out: % inhibition of IL-1-induced COX-2 expression) worked out at 32.2%. In assay [2] (Homo sapiens, Fibroblast, compound 100 μM, S112 cells, IL-1 0.1 ng/ml, 6 hours), this molecule had an inhibition at 100 µM of 29.9%.

The term EC50 denotes the midpoint of the concentration-response curve. The term inhibition denotes the drop in the measured response relative to a control, in per cent.
